Reference: patent US6689748B1, “Method of treating mast cell activation-induced diseases with a proteoglycan” (priority 1998, dated 2004)

Experiments:
Type in all cases: cell-based
[1] = test system: mast cells purified from peritoneal cavities of male Sprague/Dawley rats; test: Histamine secretion from purified rat peritoneal mast cells after saccharide preincubation and wash, stimulated with C48/80 or SP; details: preincubated with 10^−5 M saccharide 60 min 37° C., washed twice; for Mast Cell Secretion (% inhibition), C48/80: stimulated with 10^−5 M C48/80, n = 4; for Mast Cell Secretion (% inhibition), SP: stimulated with 10^−5 M Substance P, n = 3
Protocol: We studied the effect of chondroitin sulfate on histamine secretion from mast cells purified from peritoneal cavities of male Sprague/Dawley rats (300g, Charles River) over 25% Metrizamide (Accurate Scientific). Mast cells were preincubated with 10^−5 M saccharide for 60 min at 37° C. followed by two washes and resuspension in saccharide-free medium prior to stimulation with 10^−5 M of the mast cell secretagogue, compound 48/80 (C48/80) or the neuropeptide Substance P (SP). As the cells were washed free of saccharide, any inhibitory effect was not due to any interference with binding of C48/80 or SP to the cell surface. Consequently, this effect is distinct from reports showing that certain monosaccharide-containing lectins inhibit C48/80-induced mast cell secretion (Matsuda, K., et al., Jpn. J. Pharmacol. 64:1, 1994).

[2] = test system: mast cells purified from 300g male Sprague/Dawley rats; test: Histamine secretion from purified rat mast cells, 15 min preincubation, washed, C48/80 stimulation; details: for Mast Cell Secretion, % of Total: 15 min preincubation, washed, then C48/80 0.1 μg/ml 10 min
Protocol: Here, we investigated the effect of the polysaccharide chondroitin sulfate and of the flavonoid quercetin on histamine secretion from mast cells purified from 300g male Sprague/Dawley rats. Mast cells were preincubated with the test compound for 15 min at 37° C. and washed twice prior to stimulation with 0.1 μg/ml of the mast cell secretagogue compound 48/80 (C48/80) for 10 min. […] A combination of these naturally occurring products available OTC could be useful for the prevention of stress-induced gastrointestinal syndromes, such as irritable bowel syndrome or inflammatory bowel disease.

[3] = test system: human leukemic mast cells; test: Proliferation of cultured human leukemic mast cells; details: for Inhibition (%) of human leukemic mast cell proliferation: n = 5
Text: Cell viability was about 90% or better.

CC(=O)N[C@H]1C(O)O[C@H](CO)[C@@H](O)[C@@H]1O (stereo partly drawn) [N-acetyl-glucosamine]
Mast Cell Secretion (% inhibition), C48/80 [1]: 37.4 ± 10.5% | Mast Cell Secretion (% inhibition), SP [1]: 30.8 ± 6.5%

N[C@H]1C(O)O[C@H](CO)[C@@H](O)[C@@H]1O.O=S(=O)(O)O (stereo partly drawn) [D-Glucosamine sulfate]
Mast Cell Secretion (% inhibition), C48/80 [1]: 33.7 ± 1.5% | Mast Cell Secretion (% inhibition), SP [1]: 27.5 ± 18.1%

O=c1c(O)c(-c2ccc(O)c(O)c2)oc2cc(O)cc(O)c12 [Quercetin, quercetin]
Mast Cell Secretion, % of Total ([2]; test compound 10^−6M): 30.5 ± 0.5%

chondroitin sulfate
Mast Cell Secretion (% inhibition), C48/80 [1]: 75.4 ± 3.6% | Mast Cell Secretion (% inhibition), SP [1]: 38.1 ± 12.2% | maximal inhibition of mast cell activation ([2]; 10^−4 M, C48/80 stimulation): 83% | Mast Cell Secretion, % of Total ([2]; test compound 10^−4M): 5.3 ± 1.3% | Mast Cell Secretion, % of Total ([2]; test compound 10^−5M): 15.3 ± 2.7% | Mast Cell Secretion, % of Total ([2]; test compound 10^−6M): 31.0 ± 2.9% | Inhibition (%) of human leukemic mast cell proliferation ([3]; Day 3, 10^−4M): 57.8 ± 13.3% | Inhibition (%) of human leukemic mast cell proliferation ([3]; Day 3, 10^−5M): 44.3 ± 12.7% | Inhibition (%) of human leukemic mast cell proliferation ([3]; Day 3, 10^−6M): 27.2 ± 12.1% | Inhibition (%) of human leukemic mast cell proliferation ([3]; Day 3, 10^−7M): 12.6 ± 9.6% | Inhibition (%) of human leukemic mast cell proliferation ([3]; Day 4, 10^−4M): 53.1 ± 8.9% | Inhibition (%) of human leukemic mast cell proliferation ([3]; Day 4, 10^−5M): 38.9 ± 9.1% | Inhibition (%) of human leukemic mast cell proliferation ([3]; Day 4, 10^−6M): 25.3 ± 9.6% | Inhibition (%) of human leukemic mast cell proliferation ([3]; Day 4, 10^−7M): 14.9 ± 6.9% | Inhibition (%) of human leukemic mast cell proliferation ([3]; Day 5, 10^−4M): 52.4 ± 13.9% | Inhibition (%) of human leukemic mast cell proliferation ([3]; Day 5, 10^−5M): 31.2 ± 15.8% | Inhibition (%) of human leukemic mast cell proliferation ([3]; Day 5, 10^−6M): 20.7 ± 15.2% | Inhibition (%) of human leukemic mast cell proliferation ([3]; Day 5, 10^−7M): 14.7 ± 6.8% | Cell viability ([3]; human leukemic mast cells cultured in the presence of chondroitin sulfate): ≥ 90%
